{"source": "patent US9522883B2", "about": "“Glycosidase inhibitors and uses thereof” (Alectos Therapeutics Inc., priority 2012, dated 2016)", "biological_target": "human O-GlcNAcase (Homo sapiens (Human), UniProt O60502)", "sequence (O60502 whole entry)": "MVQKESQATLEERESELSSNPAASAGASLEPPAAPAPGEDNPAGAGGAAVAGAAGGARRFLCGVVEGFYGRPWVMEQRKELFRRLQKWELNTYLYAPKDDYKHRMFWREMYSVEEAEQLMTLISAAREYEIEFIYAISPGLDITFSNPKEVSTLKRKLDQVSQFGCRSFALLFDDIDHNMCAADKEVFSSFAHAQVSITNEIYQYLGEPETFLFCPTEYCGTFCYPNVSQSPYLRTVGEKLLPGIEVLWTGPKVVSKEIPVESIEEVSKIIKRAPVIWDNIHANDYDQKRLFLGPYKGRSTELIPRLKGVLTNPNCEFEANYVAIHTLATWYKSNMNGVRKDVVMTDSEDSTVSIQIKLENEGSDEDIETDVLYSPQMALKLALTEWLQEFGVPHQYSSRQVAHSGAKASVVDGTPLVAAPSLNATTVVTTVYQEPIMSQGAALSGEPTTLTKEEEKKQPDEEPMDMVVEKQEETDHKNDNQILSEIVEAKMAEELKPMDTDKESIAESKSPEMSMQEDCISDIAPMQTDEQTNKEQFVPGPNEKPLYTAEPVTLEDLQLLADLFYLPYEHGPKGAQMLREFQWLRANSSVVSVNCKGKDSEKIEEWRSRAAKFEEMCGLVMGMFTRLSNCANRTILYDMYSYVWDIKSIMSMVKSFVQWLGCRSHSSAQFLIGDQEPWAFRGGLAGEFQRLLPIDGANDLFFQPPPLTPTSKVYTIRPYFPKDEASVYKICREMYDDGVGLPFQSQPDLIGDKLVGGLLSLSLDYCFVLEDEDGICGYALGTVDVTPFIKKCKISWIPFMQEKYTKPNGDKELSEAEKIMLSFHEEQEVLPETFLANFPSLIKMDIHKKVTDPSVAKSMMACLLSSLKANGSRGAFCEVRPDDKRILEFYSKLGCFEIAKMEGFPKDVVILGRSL", "test": "Assay for determination of KI values for inhibition of O-GlcNAcase activity (fluorescence-based hOGA)", "format": "biochemical", "conditions": "purified human O-GlcNAcase, 4-Methylumbelliferyl N-acetyl-β-D-glucosaminide substrate, pH 7.0, Cheng-Prusoff", "experimental": "Enzymatic reactions were carried out in a reaction containing 50 mM NaH2PO4, 100 mM NaCl and 0.1% BSA (pH 7.0) using 2 mM 4-Methylumbelliferyl N-acetyl-β-D-glucosaminide dihydrate (Sigma M2133) dissolved in ddH2O, as a substrate. The amount of purified human O-GlcNAcase enzyme used in the reaction was 0.7 nM. Test compound of varying concentrations was added to the enzyme prior to initiation of the reaction. The reaction was performed at room temperature in a 96-well plate and was initiated with the addition of substrate. The production of fluorescent product was measured every 60 sec for 45 min with a Tecan Infinite M200 plate-reader with excitation at 355 nm and emission detected at […], with 4-Methylumbelliferone (Sigma M1381) used to produce a standard curve. The slope of product production was determined for each concentration of compound tested and plotted, using standard curve fitting algorithms for sigmoidal dose response curves. The values for a four parameter logistic curve fit of the data were determined.\nKI values were determined using the Cheng-Prusoff equation; the Km of O-GlcNAcase for substrate was 0.2 mM.", "data": [{"compound": "CC(=O)N[C@H]1CN(CCCCc2ccccc2)[C@H](CO)[C@@H](O)[C@@H]1O", "note": "[Example 1, N-((3S,4R,5R,6R)-4,5-dihydroxy-6-(hydroxymethyl)-1-(4-phenylbutyl)piperidin-3-yl)acetamide]", "values": [{"measurement": "Ki", "value": 2.58, "unit": "µM"}]}]}
